Test results published in patent US20250282752A1, “Quinazoline Derivative Salt Crystal Form, Preparation Method and Application” (WEISHANG (SHANGHAI) BIO-PHARMACEUTICAL CO., LTD., priority 2018, published 2025).
Where a name gives a salt, the structure may show the parent alone. Read-outs that look alike come from different tables or passages of the source. Blank lines part the entries; values can stand above or below the compound they belong to.

Key:
[1] = target: P-glycoprotein (Homo sapiens, UniProt P08183); assay: P-gp efflux substrate; format: in vitro ADME
[2] = Equilibrium solubility in water; format: physicochemical; conditions: room temperature, 24 hours, listed as quinazoline derivative (I) free base
Protocol: Experimental method: Weigh about 10 mg of solid sample (free base and various salt forms and crystal forms), add 1.5 mL of water, and after equilibrate at room temperature for 24 hours, take out 0.3 mL of turbid solution, and centrifuge to separate the lower solid and supernatant. After the supernatant was filtered through a 0.45 μm (PTFE) filter, the concentration of free alkali was tested.

[3] = target: T1, Breast cancer resistance protein (BCRP) (Homo sapiens, UniProt Q9UNQ0); assay: BCRP efflux substrate; format: in vitro ADME
T1 sequence (Q9UNQ0 1-655): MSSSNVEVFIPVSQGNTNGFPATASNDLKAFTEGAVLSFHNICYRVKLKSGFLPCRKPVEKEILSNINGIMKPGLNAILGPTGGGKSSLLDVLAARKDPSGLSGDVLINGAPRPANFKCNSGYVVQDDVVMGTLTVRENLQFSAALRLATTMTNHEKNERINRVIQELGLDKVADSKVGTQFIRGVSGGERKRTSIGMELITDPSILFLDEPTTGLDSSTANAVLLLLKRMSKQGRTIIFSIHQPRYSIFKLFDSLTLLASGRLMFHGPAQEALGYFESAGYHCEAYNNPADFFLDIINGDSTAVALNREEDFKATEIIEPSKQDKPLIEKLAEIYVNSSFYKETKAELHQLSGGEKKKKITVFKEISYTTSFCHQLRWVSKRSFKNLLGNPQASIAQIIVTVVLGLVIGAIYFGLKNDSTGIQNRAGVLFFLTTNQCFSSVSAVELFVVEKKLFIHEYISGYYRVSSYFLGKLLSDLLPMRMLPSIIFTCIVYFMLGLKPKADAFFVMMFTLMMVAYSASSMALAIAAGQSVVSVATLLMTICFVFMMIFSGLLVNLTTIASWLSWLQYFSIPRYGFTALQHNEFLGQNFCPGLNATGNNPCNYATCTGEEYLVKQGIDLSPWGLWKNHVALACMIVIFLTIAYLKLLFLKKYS

[4] = tested on: patient primary brain tumor tissue with EGFRVIII mutation; assay: Subcutaneous PDX mouse model of glioma with […] mutation; format: in vivo; conditions: orally, twice a day, three weeks
Protocol: The patient's primary tumor tissue (brain tumor) was implanted under the skin of the mouse, and the tumor grew to about 150 cubic millimeters, and the medication was started for three weeks. […] The second group of quinazoline derivatives (I) single agent, 3 mg/kg, orally, twice a day, the third group of quinazoline derivatives (I) single agent, 10 mg/kg, orally, two times a day, the fourth group of quinazoline derivatives (I) is a single agent, 20 mg/kg, orally, twice a day.

[5] = Blood-brain barrier penetration in rats; format: in vivo, rat; conditions: oral, four hours after administration
Protocol: To determine whether the quinazoline derivative (I) can cross the blood-brain barrier (BBB), the test compound was administered to rats orally. Four hours after the administration, the rats were killed, blood and brain tissue were collected, and the concentration of the test compound was analyzed. Brain penetration is defined as the ratio of the concentration of the compound in brain tissue to the concentration in plasma. Crossing the blood-brain barrier is the ratio of the free concentration of the drug in the brain tissue to the free concentration of the drug in the plasma. P-glycoprotein is an efflux protein of the blood-brain barrier, which discharges the P-glycoprotein substrate […]. Breast cancer resistance protein is an efflux protein from the blood-brain barrier, which excretes […].

[6] = target: EGFRV3 (EGFRVIII) (Homo sapiens, UniProt P00533, DELINS30-297G); assay: Western blot of […] phosphorylation; format: cell-based; conditions: FIG. 21
Text: FIG. 21 is a schematic diagram of the inhibition of […] phosphorylation by quinazoline derivatives of the present invention;
It can be seen from Table 22 that the quinazoline derivative (I) with the configuration of R according to the present invention has unexpected […] mutation activity, which is >100 times higher activity than the enantiomer activity while has similar biological activity for EGFR Del 19 activating mutation.

[7] = tested on: Glioma PDX with EGFRVIII mutation; assay: CellTiter-Glo cell viability, glioma tumor cells; format: cell-based
Protocol: (§1) Add 100 microliters of CellTiter-Glo reagent to each well and mix on an orbital shaker for 2 minutes to induce cell lysis. The plate was incubated at room temperature for 10 minutes to stabilize the luminescence signal. The luminescence signal was recorded on the TECAN Infinite M1000 Pro instrument.

[8] = tested on: PC-9 tumor cell (EGFR Del 19 mutation); assay: CellTiter-Glo cell viability, PC-9 tumor cells; format: cell-based; conditions: 72 hours, read-out: Inhibition of growth of PC-9 tumor cell (EGFR Del 19 mutation), IC50
Protocol: as §1

[9] = target: EGFR enzyme (Homo sapiens, UniProt P00533); assay: EGFR enzyme inhibition mechanism (ADP-Glo, ATP titration); format: biochemical; conditions: ATP diluted from 600 uM, EGFR 0.4 nM to 0.0125 nM; FIG. 24
Protocol: In the experiment of the quinazoline derivative (I) of the present invention on the mechanism of inhibiting EGFR, the EGFR enzyme was added to the 384-well plate from 6 concentrations diluted in equal proportions (2 times) of 0.4 nM to 0.0125 nM and 0 concentration in polyE4Y1 solution, incubate for 15 minutes, add 7 concentrations of ATP diluted from 600 uM in equal proportions (2 times) to react for 60 minutes, add ADP-Glo reagent and detection reagent for 40 minutes to measure RLU signal. […] The benefits of this mechanism of action are obvious. The quinazoline derivative (I) of the present invention has this mechanism of action, showing high activity and high selectivity, and has the characteristics of small side effects and resistance to drug resistance.

[10] = Rat pharmacokinetic study; format: in vivo; conditions: rats; for bioavailability: intravenous 1-2 mg/kg, oral 2-40 mg/kg
Protocol: In the rat pharmacokinetic study, a group of rats (three rats) were injected intravenously with 1-2 mg/kg, and the second group of rats (three rats) were orally administered 2-40 mg/kg at 7 time points (0.25, 0.5, 1, 2, 4, 8, 16 hours) of the quinazoline derivative (I) of the present invention. Take blood to measure the concentration of the quinazoline derivative (I) of the present invention in the blood, and calculate the peak area and half-life. The calculation method of bioavailability is: (peak area of drug oral/oral dose)/(peak area of drug intravenous injection/intravenous dose)×100%.

[11] = TGA/DSC behaviour during heating; format: physicochemical; conditions: heating process; for weight loss during heating (TGA): FIG. 23A; for stability of crystal form during heating (DSC): FIG. 23B
[12] = listed as quinazoline derivatives (I)
[13] = listed as quinazoline derivative fumarate salt

Sequence of P-glycoprotein (P08183 whole entry): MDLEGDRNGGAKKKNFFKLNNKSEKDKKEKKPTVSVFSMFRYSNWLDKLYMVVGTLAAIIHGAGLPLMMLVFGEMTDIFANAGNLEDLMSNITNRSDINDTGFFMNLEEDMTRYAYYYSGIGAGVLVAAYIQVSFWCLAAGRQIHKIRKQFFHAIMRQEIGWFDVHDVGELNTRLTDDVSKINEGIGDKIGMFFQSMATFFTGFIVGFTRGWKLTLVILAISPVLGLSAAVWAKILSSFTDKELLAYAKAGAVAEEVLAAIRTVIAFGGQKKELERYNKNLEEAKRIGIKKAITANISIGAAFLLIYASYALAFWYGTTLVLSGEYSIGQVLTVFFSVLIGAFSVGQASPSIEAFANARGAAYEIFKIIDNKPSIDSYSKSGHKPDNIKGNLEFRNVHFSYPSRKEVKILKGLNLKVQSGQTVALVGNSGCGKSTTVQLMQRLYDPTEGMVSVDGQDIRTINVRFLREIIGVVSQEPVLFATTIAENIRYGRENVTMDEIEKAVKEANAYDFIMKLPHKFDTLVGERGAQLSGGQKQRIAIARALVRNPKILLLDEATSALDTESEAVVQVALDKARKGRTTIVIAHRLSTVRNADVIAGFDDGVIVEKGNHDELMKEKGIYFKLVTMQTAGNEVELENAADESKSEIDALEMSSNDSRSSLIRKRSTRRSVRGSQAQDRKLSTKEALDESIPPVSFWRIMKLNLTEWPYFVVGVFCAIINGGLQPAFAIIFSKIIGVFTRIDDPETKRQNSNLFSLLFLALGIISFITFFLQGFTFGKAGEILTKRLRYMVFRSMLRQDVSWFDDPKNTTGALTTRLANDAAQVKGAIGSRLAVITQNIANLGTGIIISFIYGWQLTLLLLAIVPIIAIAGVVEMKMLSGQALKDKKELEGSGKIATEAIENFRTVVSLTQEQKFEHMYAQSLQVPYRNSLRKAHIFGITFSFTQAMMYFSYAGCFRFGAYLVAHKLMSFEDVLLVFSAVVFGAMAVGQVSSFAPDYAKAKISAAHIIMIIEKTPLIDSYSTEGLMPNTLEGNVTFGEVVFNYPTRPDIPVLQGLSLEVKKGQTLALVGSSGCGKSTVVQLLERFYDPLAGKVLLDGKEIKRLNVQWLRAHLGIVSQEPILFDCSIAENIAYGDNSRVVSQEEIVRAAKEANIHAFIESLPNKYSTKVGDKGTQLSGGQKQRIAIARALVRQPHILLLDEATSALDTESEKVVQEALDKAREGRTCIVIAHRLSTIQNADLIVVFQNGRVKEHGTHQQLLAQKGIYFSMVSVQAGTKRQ

- P-gp efflux substrate [1]: not a P-glycoprotein or BCRP substrate
- P-gp efflux substrate [1, 12]: no
- equilibrium solubility in water [2]: <5 µg/mL
- BCRP efflux substrate [3]: not a P-glycoprotein or BCRP substrate
- BCRP efflux substrate [3, 12]: no
- Blood brain barrier penetration rate (free concentration in brain tissue / free concentration in plasma) [5, 12]: >50%
- Kp at 4 h ([5]; rat, brain tissue / plasma (free concentrations), read-out: Blood brain barrier penetration rate (free concentration in brain tissue / free concentration in plasma)): > 0.5
- phosphorylation of EGFRV3 [6]: inhibited
- IC50 ([7]; read-out: Inhibition of growth of Glioma PDX with EGFRVIII mutation, IC50, 72 hours, CellTiter-Glo): 10 nM
- IC50 [8]: 8 nM
- mechanism of inhibiting EGFR [9]: non-ATP competition mechanism
SMILES: C#Cc1cccc(Nc2ncnc3cc(OC)c(O[C@@H]4CCN(C)CC4(F)F)cc23)c1F [quinazoline derivative (I), (R)-6-[(3,3-difluoro-1-methylpiperidin-4-yl)oxy]-N-(3-Ethynyl-2-fluorophenyl)-7-methoxyquinazolin-4-amine]
- tumor reduction ([4]; 20 mg/kg): caused tumor reduction
- inhibition of tumor growth vs control group ([4]; 3, 10 and 20 mg/kg, FIG. 22): good inhibition of tumor growth
- EGFRVIII mutation activity relative to the enantiomer ([7]; R configuration vs S enantiomer): > 100 times

- bioavailability ([10]; rat, blood, po, read-out: bioavailability): > 60%
SMILES: C#Cc1cccc(Nc2ncnc3cc(OC)c(O[C@@H]4CCN(C)CC4(F)F)cc23)c1F [Hydrochloride crystal form B, (R)-6-[(3,3-difluoro-1-methylpiperidin-4-yl)oxy]-N-(3-Ethynyl-2-fluorophenyl)-7-methoxyquinazolin-4-amine]

- half-life ([10]; rat, blood): 444 min
- bioavailability [10]: 80%
- weight loss during heating (TGA) [11]: no significant weight loss
- weight loss during heating (TGA) [11, 13]: without significant weight loss
- stability of crystal form during heating (DSC) [11]: good stability
SMILES: C#Cc1cccc(Nc2ncnc3cc(OC)c(O[C@@H]4CCN(C)CC4(F)F)cc23)c1F [fumarate crystal form A, (R)-6-[(3,3-difluoro-1-methylpiperidin-4-yl)oxy]-N-(3-Ethynyl-2-fluorophenyl)-7-methoxyquinazolin-4-amine]
- stability of crystal form during heating (DSC) [11, 13]: the crystal form is stable during heating
